Data taken from patent US9089139B2, “Agri-horticultural pest control compositions comprising 4-(3-butynyl)aminopyrimidine derivatives” (SDS Biotech K. K., priority 2011, dated 2015).

System: not given
Experiment: not given
Conditions: not given
Work on `CC(C)[Si](C#CCCNc1ncnc2sccc12)(C(C)C)C(C)C` yielded a melting point of 196 to 198 °C. `CC(C)(C)[Si](C)(C)C#CCCNc1ncnc2sccc12` gave a melting point of 190 to 192 °C. Compound `C(#Cc1cncs1)CCNc1ncnc2sccc12` [Compound No. 61] has a melting point of 156 to 158 °C. For `C(#Cc1csc(-c2ccccc2)n1)CCNc1ncnc2sccc12` [Compound No. 76, 4-[4-(2-Phenylthiazol-4-yl)-3-butynylamino]thieno[2,3-d]pyrimidine], the melting point was 134 to 136 °C. Compound `C(#Cc1ccccc1)CC(Nc1ncnc2ccccc12)c1ccccc1` (centres unmarked) [Compound No. 301, 4-[(1,4-diphenyl-3-butynyl)amino]quinazoline] has a melting point of 141 to 143 °C. Compound `Cc1cccc(C#CCCNc2ncnc3sccc23)c1` [compound 18] has a melting point of 120 to 123 °C. Work on `COc1ccc(C#CCCNc2ncnc3sccc23)cc1OC` [compound 24] yielded a melting point of 182 to 184 °C. Compound `FC(F)(F)c1cccc(C#CCCNc2ncnc3sccc23)c1` [compound 26] has a melting point of 123 to 125 °C. Work on `FC(F)(F)c1cc(C#CCCNc2ncnc3sccc23)cc(C(F)(F)F)c1` [compound 28] yielded a melting point of 163 to 166 °C. `COC(=O)c1cccc(C#CCCNc2ncnc3sccc23)c1` [compound 30] gave a melting point of 163 to 166 °C. In the case of `O=[N+]([O-])c1cccc(C#CCCNc2ncnc3sccc23)c1` [compound 39], the melting point is reported as 171 to 172 °C. In the case of `O=[N+]([O-])c1ccc(C#CCCNc2ncnc3sccc23)cc1` [compound 40], the melting point is reported as 184 to 185 °C. Compound `Fc1ccc(C#CCCNc2ncnc3sccc23)c(F)c1` [compound 41] has a melting point of 177 to 178 °C. Compound `Fc1cccc(F)c1C#CCCNc1ncnc2sccc12` [compound 42] has a melting point of 179 to 181 °C. `Fc1cc(C#CCCNc2ncnc3sccc23)cc(F)c1F` [compound 43] showed a melting point of 158 to 159 °C. For `C(#Cc1cccnc1)CCNc1ncnc2sccc12` [compound 56], the melting point was 138 to 140 °C. Compound `C(#Cc1ccncc1)CCNc1ncnc2sccc12` [compound 57] has a melting point of 140 to 141 °C. With `Cc1cc(C)nc(C#CCCNc2ncnc3sccc23)n1` [compound 59] the melting point was 112 to 113 °C. `C(#Cc1nccs1)CCNc1ncnc2sccc12` [compound 62] showed a melting point of 128 to 129 °C. For `C(#Cc1cscn1)CCNc1ncnc2sccc12` [compound 63], the melting point was 174 °C. `Cc1scnc1C#CCCNc1ncnc2sccc12` [compound 65] gave a melting point of 148 to 150 °C. `Cc1nc(C#CCCNc2ncnc3sccc23)cs1` [compound 66] showed a melting point of 160 to 161 °C. `OCc1nc(C#CCCNc2ncnc3sccc23)cs1` [compound 70] gave a melting point of 193 °C. `CC(=O)OCc1nc(C#CCCNc2ncnc3sccc23)cs1` [compound 73] showed a melting point of 128 to 129 °C. Work on `C(#Cc1csc(-c2ccco2)n1)CCNc1ncnc2sccc12` [compound 77] yielded a melting point of 53 to 55 °C. For `C(#Cc1csc(-c2ccoc2)n1)CCNc1ncnc2sccc12` [compound 78], the melting point was 140 to 142 °C. With `C(#Cc1csc(-c2ccsc2)n1)CCNc1ncnc2sccc12` [compound 80] the melting point was 55 to 56 °C. For `C(#Cc1csc(-c2cccnc2)n1)CCNc1ncnc2sccc12` [compound 81], the melting point was 175 to 177 °C. `C=C(C#CCCNc1ncnc2ccccc12)CO` [compound 92] showed a melting point of 139 °C. `C(#Cc1ccccc1)CCNc1ncnc2ccccc12` [compound 96] gave a melting point of 120 to 122 °C. Compound `C=C(C)CCc1ccccc1C#CCCNc1ncnc2ccccc12` [compound 105] has a melting point of 92 to 94 °C. `CSc1cccc(C#CCCNc2ncnc3ccccc23)c1` [compound 116] showed a melting point of 141 to 142 °C. For `CCOc1ccccc1C#CCCNc1ncnc2ccccc12` [compound 118], the melting point was 119 to 120 °C. `CS(=O)(=O)c1ccc(C#CCCNc2ncnc3ccccc23)cc1` [compound 120] showed a melting point of 164 to 165 °C. In the case of `CCOC(=O)c1ccc(C#CCCNc2ncnc3ccccc23)cc1` [compound 129], the melting point is reported as 137 to 138 °C. `OCc1cccc(C#CCCNc2ncnc3ccccc23)c1` [compound 131] gave a melting point of 113 to 115 °C. In the case of `OCc1ccc(C#CCCNc2ncnc3ccccc23)cc1` [compound 132], the melting point is reported as 69 to 71 °C. Compound `OC(c1ccccc1C#CCCNc1ncnc2ccccc12)C(F)(F)F` (centres unmarked) [compound 138] has a melting point of 183 to 187 °C. `COCc1cc(F)c(F)cc1C#CCCNc1ncnc2ccccc12` [compound 146] gave a melting point of 121 to 125 °C. For `C(#Cc1ccc(OC2CCCCO2)cc1)CCNc1ncnc2ccccc12` (centres unmarked) [compound 156], the melting point was 163 to 165 °C. In the case of `Fc1cc(Cl)ccc1C#CCCNc1ncnc2ccccc12` [compound 164], the melting point is reported as 198 to 199 °C. `N#Cc1c(F)cccc1C#CCCNc1ncnc2ccccc12` [compound 165] gave a melting point of 163 to 164 °C. Compound `Fc1ccc(C#CCCNc2ncnc3ccccc23)cc1F` [compound 166] has a melting point of 161 to 162 °C. Work on `Clc1cccc(C#CCCNc2ncnc3ccccc23)c1Cl` [compound 171] yielded a melting point of 175 to 176 °C. For `Clc1ccc(C#CCCNc2ncnc3ccccc23)c(Cl)c1` [compound 172], the melting point was 182 to 183 °C. `Clc1ccc(Cl)c(C#CCCNc2ncnc3ccccc23)c1` [compound 173] showed a melting point of 176 to 177 °C. For `Clc1cccc(Cl)c1C#CCCNc1ncnc2ccccc12` [compound 174], the melting point was 153 to 155 °C. With `Clc1ccc(C#CCCNc2ncnc3ccccc23)cc1Cl` [compound 175] the melting point was 147 to 148 °C. Work on `FC(F)(F)c1ccc(Cl)c(C#CCCNc2ncnc3ccccc23)c1` [compound 176] yielded a melting point of 144 to 145 °C. Compound `COc1ccc(Cl)cc1C#CCCNc1ncnc2ccccc12` [compound 179] has a melting point of 147 to 149 °C. Compound `C(#Cc1ccc2ccccc2c1)CCNc1ncnc2ccccc12` [compound 183] has a melting point of 159 to 160 °C. In the case of `Fc1cncc(C#CCCNc2ncnc3ccccc23)c1` [compound 193], the melting point is reported as 145 to 150 °C. Compound `Clc1ncccc1C#CCCNc1ncnc2ccccc12` [compound 195] has a melting point of 168 to 170 °C. Compound `FC(F)(F)c1ccc(C#CCCNc2ncnc3ccccc23)cn1` [compound 198] has a melting point of 134 to 139 °C. `OCc1cnccc1C#CCCNc1ncnc2ccccc12` [compound 201] showed a melting point of 182 to 186 °C. With `OCc1ccc(C#CCCNc2ncnc3ccccc23)cn1` [compound 202] the melting point was 183 to 185 °C. With `OCc1cc(C#CCCNc2ncnc3ccccc23)co1` [compound 209] the melting point was 135 to 147 °C. With `CCOC(=O)c1cnc(C#CCCNc2ncnc3ccccc23)s1` [compound 213] the melting point was 113 to 114 °C. Compound `CCOC(=O)c1sc(C#CCCNc2ncnc3ccccc23)nc1C` [compound 214] has a melting point of 139 to 140 °C. `COc1cccc(Oc2nc(C#CCCNc3ncnc4ccccc34)cs2)c1` [compound 216] gave a melting point of 77 to 79 °C. With `COc1ccc(Oc2nc(C#CCCNc3ncnc4ccccc34)cs2)cc1` [compound 217] the melting point was 150 to 152 °C. In the case of `FC(F)(F)c1ccccc1Oc1nc(C#CCCNc2ncnc3ccccc23)cs1` [compound 218], the melting point is reported as 159 to 161 °C. `FC(F)(F)c1cccc(Oc2nc(C#CCCNc3ncnc4ccccc34)cs2)c1` [compound 219] gave a melting point of 106 to 108 °C. For `FC(F)(F)c1ccc(Oc2nc(C#CCCNc3ncnc4ccccc34)cs2)cc1` [compound 220], the melting point was 137 to 139 °C. Compound `N#Cc1cccc(Oc2nc(C#CCCNc3ncnc4ccccc34)cs2)c1` [compound 222] has a melting point of 137 to 139 °C. `N#Cc1ccc(Oc2nc(C#CCCNc3ncnc4ccccc34)cs2)cc1` [compound 223] gave a melting point of 55 to 57 °C. For `Fc1cccc(Oc2nc(C#CCCNc3ncnc4ccccc34)cs2)c1` [compound 225], the melting point was 134 to 136 °C. Compound `CC(CC#Cc1cscn1)Nc1ncnc2ccccc12` (centres unmarked) [compound 291] has a melting point of 142 to 145 °C. Work on `FC(F)(F)c1ccccc1C#CCC(Nc1ncnc2ccccc12)c1ccccc1` (centres unmarked) [compound 302] yielded a melting point of 150 to 152 °C. In the case of `FC(F)(F)c1ccccc1C#CCCNc1ncnc2cc(Cl)ccc12` [compound 308], the melting point is reported as 153 to 154 °C. In the case of `COCc1ccccc1C#CCCNc1ncnc2ccc(I)cc12` [compound 322], the melting point is reported as 121 to 123 °C. For `COCc1ccccc1C#CCCNc1ncnc2c(Cl)cc(Cl)cc12` [compound 338], the melting point was 161 to 162 °C. With `Clc1ncnc(NCCC#Cc2ccccc2)c1Cl` [compound 357] the melting point was 122 to 123 °C. `Clc1cc(NCCC#Cc2ccccc2)ncn1` [compound 358] showed a melting point of 118 to 120 °C. Compound `Clc1ncnc(NCCC#Cc2ccccc2)c1Cc1ccccc1` [compound 372] has a melting point of 157 to 158 °C. `C(#Cc1ccccc1)CCNc1ncnc2[nH]cnc12` [compound 378] gave a melting point of 207 to 208 °C.

System: Sphaerotheca fuliginea
Experiment: Test 1: control effect against powdery mildew on cucumber (control index)
Assay type: in vivo, Sphaerotheca fuliginea on cucumber (variety: SAGAMI HANJIRO)
Conditions: individual active compound, test concentration 2 ppm
Description: The expected efficacies of the combinations of the individual active compounds can be determined using Colby's formula, which is described below [Colby, S. R. “Calculating synergistic and antagonistic responses of herbicide combinations,” Weeds 15, 20-22 (1967)]: Colby's formula: E=A+B−(A×B/100) E is the predicted efficacy (control index) with reference to the untreated control when using the mixture of the active compound X at the concentration x and the active compound Y at the concentration y; A is the efficacy (control index) with respect to the untreated control when using the active compound X at the concentration x; B is the efficacy (control index) with respect to the untreated control when using the active compound […] at the concentration y.
Potted young seedlings of cucumber (variety: SAGAMI HANJIRO; in two-leaf stage) were sprayed with invention compounds formulated in accordance with Preparations and the existing antimicrobial active compounds listed in Table 3 (all compounds are identified by associated letters of the alphabet) after they were diluted with water to predetermined concentrations so that they would serve as active compounds; a spray gun was used to provide a spray rate of 15 ml per pot. After air-drying, the seedlings were inoculated with conida of Sphaerotheca fuliginea by spraying a suspension of the conida. Thereafter, the seedlings were cultivated for 14 days in a greenhouse and the percentage of diseased area was investigated for each leaf; based on the result of this investigation, the control index was calculated using the following formula: Control index={(percentage of diseased area on the untreated control−percentage of diseased area on treated sample)/percentage of diseased area on the untreated control}×100
Compound `CCCCCCCCCCCCc1ccc(S(=O)(=O)O)cc1.CCCCCCCCCCCCc1ccc(S(=O)(=O)O)cc1.CCCCCCCCCCCCc1ccc(S(=O)(=O)O)cc1.NC(N)=NCCCCCCCCNCCCCCCCCN=C(N)N` [Ab: Iminoctadine albesilate, iminoctadine albesilate] has a Control index of 41.
